Assays:
Type in all cases: biochemical
B-Raf = target: T1, B-Raf (Homo sapiens, UniProt P15056); assay: AlphaScreen kinase assay, B-Raf; details: read-out: IC50, activity toward kinase B-Raf
T1 construct: purchased Upstate Biotechnology

B-Raf V600E = target: T2, B-Raf V600E (Homo sapiens, UniProt P15056, V600E); assay: AlphaScreen kinase assay, B-Raf V600E; details: read-out: IC50, activity toward kinase B-Raf V600E
T2 construct: P4254. pFastBacBD-CDC37 BRAF D437-K722-X, V600E; His6 with pFastBac HT leader (TEV site) (N); made in house; host or cells: Sf9 (baculovirus; chaperone CDC37 co-expressed)

c-Raf-1 = target: T3, c-Raf-1 (Homo sapiens, UniProt P04049); assay: AlphaScreen kinase assay, c-Raf-1; details: read-out: IC50, activity toward kinase c-Raf-1
T3 construct: purchased Upstate Biotechnology

FGFR1 = target: T4, FGFR1 (Homo sapiens, UniProt P11362, C488A/C584S); assay: AlphaScreen kinase assay, FGFR1; details: read-out: IC50, activity toward kinase FGFR
T4 construct: P1351.pET N6 BI-PTP FGFR A458-E765-X C488A, C584S; made in house; host or cells: E. coli (PTP1B co-expressed)

Flt1 = target: T5, Flt1 (Homo sapiens, UniProt P17948); assay: AlphaScreen kinase assay, Flt1; details: read-out: IC50, activity toward kinase Flt1
T5 construct: P1826.pETN6 BI-PTP FLT1 M799-D1165-X WT; His6 (N); made in house; host or cells: E. coli (PTP1B co-expressed)
T5 sequence (P17948 with tags, fused parts or gaps): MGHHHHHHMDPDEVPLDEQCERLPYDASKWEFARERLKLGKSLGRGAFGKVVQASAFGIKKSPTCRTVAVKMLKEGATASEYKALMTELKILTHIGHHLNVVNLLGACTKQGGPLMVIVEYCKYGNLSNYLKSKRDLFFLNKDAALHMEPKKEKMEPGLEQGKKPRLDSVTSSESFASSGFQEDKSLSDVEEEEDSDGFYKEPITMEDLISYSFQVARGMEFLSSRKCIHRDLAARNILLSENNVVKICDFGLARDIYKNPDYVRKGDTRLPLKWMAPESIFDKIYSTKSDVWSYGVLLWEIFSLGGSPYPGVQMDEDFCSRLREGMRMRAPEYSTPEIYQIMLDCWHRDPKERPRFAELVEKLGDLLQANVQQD

Fms = target: T6, Fms (Homo sapiens, UniProt P07333); assay: AlphaScreen kinase assay, Fms; details: read-out: IC50, activity toward kinase Fms
T6 construct: purchased Upstate Biotechnology

Src = target: T7, Src (Homo sapiens, UniProt P12931); assay: AlphaScreen kinase assay, Src; details: read-out: IC50, activity toward kinase Src
T7 construct: P1144. pET-N6 BI-PTP SRC V86-L536-X; made in house

Csk = Csk (Homo sapiens, UniProt P41240); assay: AlphaScreen kinase assay, Csk; details: read-out: IC50, activity toward kinase Csk
Source text: (§1) AlphaScreen assay was used to screen additional kinases. The assay is similarly dependent on the phosphorylation of a peptide substrate. In this assay, an antibody that recognizes phosphorylated substrate is bound to an acceptor bead. The peptide substrate is attached to biotin, which binds to a donor head that contains streptavidin. Thus phosphorylated substrate is bound by antibody and streptavidin, bringing the donor and acceptor heads into close proximity when kinase is not inhibited. The donor produces singlet oxygen which results in emission from the acceptor when they are in close proximity. Conversely, when kinase is inhibited, the donor and acceptor beads are not associated and the emission from the acceptor is reduced.
(§2) AlphaScreen assays were done using compounds dissolved in DMSO to a concentration of 20 mM. The compounds were diluted accordingly to the desired final concentrations in each sample well, using 1:3 serial dilution for a total of 8 concentration points.

Frk = Frk (Homo sapiens, UniProt P42685); assay: AlphaScreen kinase assay, Frk; details: read-out: IC50, activity toward kinase Frk
Source text: as §1, §2

Brk = Brk (Homo sapiens, UniProt Q13882); assay: AlphaScreen kinase assay, Brk; details: read-out: IC50, activity toward kinase Brk
Source text: as §1, §2

Kit = target: T8, Kit (Homo sapiens, UniProt P10721); assay: AlphaScreen kinase assay, Kit; details: read-out: IC50, activity toward kinase Kit
T8 construct: P1332.N6 BI PTP KIT M552-K948-X COD; His6 (N); made in house; host or cells: E. coli (PTP1B co-expressed)

MAP4K4 = MAP4K4 (Homo sapiens, UniProt O95819); assay: AlphaScreen kinase assay, MAP4K4; details: read-out: IC50, activity toward kinase MAP4K4
Plk1 = Plk1 (Homo sapiens, UniProt P53350); assay: AlphaScreen kinase assay, Plk1; details: read-out: IC50, activity toward kinase Plk1
Summary of the method: (§3)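 Compounds in DMSO (20 mM stock) were diluted 1:3 across 8 points. Each kinase phosphorylated a biotin-labelled peptide. Signal generated when donor and acceptor beads came close via antibody binding of phosphorylated substrate.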

TEC = target: T9, TEC (Homo sapiens, UniProt P42680); assay: AlphaScreen kinase assay, TEC; details: read-out: IC50, activity toward kinase TEC
T9 sequence (P42680 1-631): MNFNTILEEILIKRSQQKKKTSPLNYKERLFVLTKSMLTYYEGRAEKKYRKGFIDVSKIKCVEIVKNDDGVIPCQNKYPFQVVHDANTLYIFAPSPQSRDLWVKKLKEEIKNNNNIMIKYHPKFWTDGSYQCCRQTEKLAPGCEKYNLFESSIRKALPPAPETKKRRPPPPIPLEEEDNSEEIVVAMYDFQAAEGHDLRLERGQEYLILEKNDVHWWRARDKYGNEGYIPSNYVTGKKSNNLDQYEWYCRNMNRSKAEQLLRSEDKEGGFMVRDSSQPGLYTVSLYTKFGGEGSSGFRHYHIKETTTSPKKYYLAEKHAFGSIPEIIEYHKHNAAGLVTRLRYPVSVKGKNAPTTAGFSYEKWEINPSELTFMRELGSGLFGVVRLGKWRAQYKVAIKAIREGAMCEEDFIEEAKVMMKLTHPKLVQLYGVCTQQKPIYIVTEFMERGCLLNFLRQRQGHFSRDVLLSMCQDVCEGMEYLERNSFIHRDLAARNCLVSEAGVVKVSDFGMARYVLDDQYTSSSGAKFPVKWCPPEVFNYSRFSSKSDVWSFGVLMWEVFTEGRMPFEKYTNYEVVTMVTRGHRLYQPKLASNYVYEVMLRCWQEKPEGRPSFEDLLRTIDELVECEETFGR
Source text: as §1, §2

Fak = target: T10, Fak (Homo sapiens, UniProt Q05397); assay: AlphaScreen kinase assay, Fak; details: read-out: IC50, activity toward kinase Fak
T10 construct: P1358.pFastBacHtb FAK S411-Q686-X; His6 with pFastBacHTb leader (TEV site) (N); made in house; host or cells: Sf9 (baculovirus)

Stk6 = target: T11, Stk6 (Homo sapiens, UniProt O14965); assay: Z'-Lyte FRET kinase assay (Invitrogen), Stk6; details: read-out: IC50, activity toward kinase Stk6
T11 construct: purchased Invitrogen (Carlsbad, Calif.), screening service
T11 sequence (O14965 1-403): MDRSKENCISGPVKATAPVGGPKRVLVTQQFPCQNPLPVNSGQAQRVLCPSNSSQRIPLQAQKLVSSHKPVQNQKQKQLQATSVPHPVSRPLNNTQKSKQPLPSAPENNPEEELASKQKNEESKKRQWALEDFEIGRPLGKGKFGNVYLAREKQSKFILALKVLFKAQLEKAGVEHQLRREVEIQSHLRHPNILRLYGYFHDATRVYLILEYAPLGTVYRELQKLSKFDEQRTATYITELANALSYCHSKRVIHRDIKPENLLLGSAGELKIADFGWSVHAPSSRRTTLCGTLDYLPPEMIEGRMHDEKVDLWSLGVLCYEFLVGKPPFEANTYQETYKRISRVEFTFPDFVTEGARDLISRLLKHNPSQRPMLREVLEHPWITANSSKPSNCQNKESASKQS

Jnk1 = target: T12, Jnk1 (Homo sapiens, UniProt P45983); assay: AlphaScreen kinase assay, Jnk1; details: read-out: IC50, activity toward kinase Jnk1
T12 construct: purchased Upstate Biotechnology

Kdr = target: T13, Kdr (Homo sapiens, UniProt P35968); assay: Z'-Lyte FRET kinase assay (Invitrogen), Kdr; details: read-out: IC50, activity toward kinase Kdr
T13 construct: purchased Invitrogen (assay run by Invitrogen)

Btk = target: T14, Btk (Homo sapiens, UniProt Q06187); assay: Z'-Lyte FRET kinase assay (Invitrogen), Btk; details: read-out: IC50, activity toward kinase Btk
T14 construct: purchased Invitrogen (assay run by Invitrogen)

Jnk3 = target: T15, Jnk3 (Homo sapiens, UniProt P53779); assay: AlphaScreen kinase assay, Jnk3; details: read-out: IC50, activity toward kinase Jnk3
T15 construct: purchased Upstate Biotechnology

Gsk3β = Gsk3β (Homo sapiens, UniProt P49841); assay: AlphaScreen kinase assay, Gsk3β; details: read-out: IC50, activity toward kinase Gsk3β
Summary of the method: as §3

T7 sequence (P12931 with tags, fused parts or gaps): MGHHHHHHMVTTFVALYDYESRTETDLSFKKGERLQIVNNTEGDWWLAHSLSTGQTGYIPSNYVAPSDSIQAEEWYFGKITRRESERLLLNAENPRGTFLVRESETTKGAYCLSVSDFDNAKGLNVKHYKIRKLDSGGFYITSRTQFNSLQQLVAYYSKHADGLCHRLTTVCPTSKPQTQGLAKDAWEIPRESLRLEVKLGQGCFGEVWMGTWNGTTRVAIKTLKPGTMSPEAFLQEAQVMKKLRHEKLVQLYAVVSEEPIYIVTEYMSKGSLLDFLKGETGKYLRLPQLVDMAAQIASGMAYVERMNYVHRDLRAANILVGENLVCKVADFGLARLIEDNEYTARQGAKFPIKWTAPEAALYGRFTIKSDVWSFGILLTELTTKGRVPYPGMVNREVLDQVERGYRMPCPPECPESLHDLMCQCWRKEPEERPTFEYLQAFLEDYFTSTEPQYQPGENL
T6 sequence (P07333 20-972): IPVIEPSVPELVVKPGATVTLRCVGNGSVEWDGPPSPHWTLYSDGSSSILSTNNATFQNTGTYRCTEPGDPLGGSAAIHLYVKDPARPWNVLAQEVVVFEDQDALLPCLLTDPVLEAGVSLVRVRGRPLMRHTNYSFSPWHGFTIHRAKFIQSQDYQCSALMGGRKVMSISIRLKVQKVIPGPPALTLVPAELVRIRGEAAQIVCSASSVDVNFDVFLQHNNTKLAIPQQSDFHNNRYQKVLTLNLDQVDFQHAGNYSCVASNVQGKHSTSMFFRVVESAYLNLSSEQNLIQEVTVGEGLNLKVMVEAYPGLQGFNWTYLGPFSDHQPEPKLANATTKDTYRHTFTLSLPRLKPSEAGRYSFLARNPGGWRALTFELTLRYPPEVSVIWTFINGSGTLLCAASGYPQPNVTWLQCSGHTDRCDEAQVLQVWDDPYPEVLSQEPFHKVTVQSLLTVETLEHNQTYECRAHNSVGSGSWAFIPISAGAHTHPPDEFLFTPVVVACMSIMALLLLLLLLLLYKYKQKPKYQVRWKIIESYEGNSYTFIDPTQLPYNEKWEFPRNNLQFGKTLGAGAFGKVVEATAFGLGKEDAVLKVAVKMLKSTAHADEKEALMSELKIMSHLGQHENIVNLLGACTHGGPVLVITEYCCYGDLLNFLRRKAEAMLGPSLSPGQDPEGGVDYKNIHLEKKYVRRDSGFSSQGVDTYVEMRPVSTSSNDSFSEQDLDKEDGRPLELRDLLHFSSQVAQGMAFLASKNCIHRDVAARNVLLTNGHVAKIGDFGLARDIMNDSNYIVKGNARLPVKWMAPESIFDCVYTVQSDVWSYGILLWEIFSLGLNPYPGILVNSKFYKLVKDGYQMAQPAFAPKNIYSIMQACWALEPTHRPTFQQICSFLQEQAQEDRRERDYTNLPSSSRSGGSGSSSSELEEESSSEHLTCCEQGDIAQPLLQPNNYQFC
T4 sequence (P11362 458-765 C488A/C584S): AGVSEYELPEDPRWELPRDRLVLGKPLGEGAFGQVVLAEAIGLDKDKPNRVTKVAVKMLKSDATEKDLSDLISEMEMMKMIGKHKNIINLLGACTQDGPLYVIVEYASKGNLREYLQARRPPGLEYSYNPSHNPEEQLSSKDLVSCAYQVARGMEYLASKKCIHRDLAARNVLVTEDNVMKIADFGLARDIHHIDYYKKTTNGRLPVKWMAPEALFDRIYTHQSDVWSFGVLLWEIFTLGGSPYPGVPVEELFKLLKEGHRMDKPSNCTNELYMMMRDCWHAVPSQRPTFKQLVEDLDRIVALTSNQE
Brk, sequence (Q13882 whole entry): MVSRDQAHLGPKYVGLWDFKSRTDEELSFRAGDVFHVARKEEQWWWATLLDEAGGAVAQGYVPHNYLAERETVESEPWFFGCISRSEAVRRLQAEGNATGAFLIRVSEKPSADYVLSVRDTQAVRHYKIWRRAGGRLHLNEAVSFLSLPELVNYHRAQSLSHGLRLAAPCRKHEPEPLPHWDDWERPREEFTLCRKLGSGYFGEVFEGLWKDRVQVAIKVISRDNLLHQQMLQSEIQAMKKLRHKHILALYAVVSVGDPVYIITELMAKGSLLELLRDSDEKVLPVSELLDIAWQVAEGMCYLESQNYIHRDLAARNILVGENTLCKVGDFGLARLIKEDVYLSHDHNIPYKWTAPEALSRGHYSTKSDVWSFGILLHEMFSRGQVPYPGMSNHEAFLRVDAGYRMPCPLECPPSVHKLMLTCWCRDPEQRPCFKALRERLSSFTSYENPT
T8 sequence (P10721 with tags, fused parts or gaps): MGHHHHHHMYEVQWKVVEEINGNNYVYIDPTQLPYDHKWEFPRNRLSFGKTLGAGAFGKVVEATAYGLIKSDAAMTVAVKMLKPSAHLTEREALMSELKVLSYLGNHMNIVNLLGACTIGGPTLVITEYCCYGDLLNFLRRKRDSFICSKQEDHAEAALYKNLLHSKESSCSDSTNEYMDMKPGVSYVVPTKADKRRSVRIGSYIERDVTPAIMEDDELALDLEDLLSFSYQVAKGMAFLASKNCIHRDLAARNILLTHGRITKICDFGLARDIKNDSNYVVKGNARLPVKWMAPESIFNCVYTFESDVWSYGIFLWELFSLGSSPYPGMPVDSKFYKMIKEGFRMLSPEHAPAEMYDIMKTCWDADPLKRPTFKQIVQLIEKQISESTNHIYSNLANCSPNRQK
T2 sequence (P15056 with tags, fused parts or gaps V600E): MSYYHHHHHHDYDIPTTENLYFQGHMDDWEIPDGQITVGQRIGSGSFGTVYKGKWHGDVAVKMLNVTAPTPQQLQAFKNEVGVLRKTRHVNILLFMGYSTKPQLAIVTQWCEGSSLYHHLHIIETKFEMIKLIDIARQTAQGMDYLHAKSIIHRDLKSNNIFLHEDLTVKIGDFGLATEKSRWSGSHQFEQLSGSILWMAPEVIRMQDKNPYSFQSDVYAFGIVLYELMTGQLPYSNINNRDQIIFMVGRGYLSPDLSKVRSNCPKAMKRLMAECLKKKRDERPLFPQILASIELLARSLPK
T1 sequence (P15056 whole entry): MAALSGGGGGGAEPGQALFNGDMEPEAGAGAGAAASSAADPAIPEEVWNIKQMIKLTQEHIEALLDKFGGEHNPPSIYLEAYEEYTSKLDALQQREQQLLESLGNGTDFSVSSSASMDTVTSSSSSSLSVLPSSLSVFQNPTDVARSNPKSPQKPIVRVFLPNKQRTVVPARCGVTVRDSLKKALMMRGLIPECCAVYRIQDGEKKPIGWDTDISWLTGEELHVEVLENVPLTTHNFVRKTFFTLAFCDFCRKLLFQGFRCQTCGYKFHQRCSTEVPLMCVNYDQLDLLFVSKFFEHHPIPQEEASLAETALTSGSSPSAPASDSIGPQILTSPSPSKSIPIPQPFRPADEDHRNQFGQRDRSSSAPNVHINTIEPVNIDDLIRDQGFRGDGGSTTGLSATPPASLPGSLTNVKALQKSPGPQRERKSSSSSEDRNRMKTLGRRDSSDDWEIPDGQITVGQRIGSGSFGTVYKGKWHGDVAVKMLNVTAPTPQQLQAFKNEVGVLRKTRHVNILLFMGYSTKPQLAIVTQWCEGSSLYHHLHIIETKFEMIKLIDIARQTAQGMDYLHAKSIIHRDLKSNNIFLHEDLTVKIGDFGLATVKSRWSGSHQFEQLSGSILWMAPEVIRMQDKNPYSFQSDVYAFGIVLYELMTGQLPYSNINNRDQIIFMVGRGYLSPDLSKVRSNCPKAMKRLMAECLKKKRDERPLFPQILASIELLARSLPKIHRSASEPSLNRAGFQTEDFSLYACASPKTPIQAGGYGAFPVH
T3 sequence (P04049 whole entry): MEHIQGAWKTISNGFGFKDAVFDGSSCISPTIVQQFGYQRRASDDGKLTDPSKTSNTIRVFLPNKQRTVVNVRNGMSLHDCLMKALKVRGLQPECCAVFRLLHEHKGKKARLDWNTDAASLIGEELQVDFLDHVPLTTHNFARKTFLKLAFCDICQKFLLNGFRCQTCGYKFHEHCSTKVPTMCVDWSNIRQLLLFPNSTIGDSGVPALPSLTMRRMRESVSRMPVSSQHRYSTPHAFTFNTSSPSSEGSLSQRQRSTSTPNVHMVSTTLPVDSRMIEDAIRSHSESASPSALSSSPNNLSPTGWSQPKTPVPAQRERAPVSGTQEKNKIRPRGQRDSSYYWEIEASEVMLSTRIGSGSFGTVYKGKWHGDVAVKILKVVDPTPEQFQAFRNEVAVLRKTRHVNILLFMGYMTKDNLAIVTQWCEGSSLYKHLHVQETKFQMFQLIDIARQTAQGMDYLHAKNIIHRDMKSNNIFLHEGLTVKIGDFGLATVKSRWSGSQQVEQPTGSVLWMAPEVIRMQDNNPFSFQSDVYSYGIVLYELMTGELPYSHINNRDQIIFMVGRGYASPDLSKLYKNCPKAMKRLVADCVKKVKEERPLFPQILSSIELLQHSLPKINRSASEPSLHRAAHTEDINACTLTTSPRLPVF
Frk, sequence (P42685 whole entry): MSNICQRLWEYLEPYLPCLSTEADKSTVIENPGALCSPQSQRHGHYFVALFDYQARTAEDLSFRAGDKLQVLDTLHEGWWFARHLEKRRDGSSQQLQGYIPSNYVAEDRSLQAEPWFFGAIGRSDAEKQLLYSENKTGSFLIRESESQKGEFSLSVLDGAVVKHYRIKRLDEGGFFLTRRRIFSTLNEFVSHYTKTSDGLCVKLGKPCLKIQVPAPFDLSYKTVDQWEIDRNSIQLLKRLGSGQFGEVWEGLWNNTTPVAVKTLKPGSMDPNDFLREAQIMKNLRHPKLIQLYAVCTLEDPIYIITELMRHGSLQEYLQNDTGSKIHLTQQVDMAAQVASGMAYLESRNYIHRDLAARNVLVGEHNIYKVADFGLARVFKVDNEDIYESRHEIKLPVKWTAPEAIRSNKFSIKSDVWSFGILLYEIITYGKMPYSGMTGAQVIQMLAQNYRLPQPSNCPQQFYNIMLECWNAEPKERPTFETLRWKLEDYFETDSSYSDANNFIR

IC50 (B-Raf) [µM]	IC50 (B-Raf V600E) [µM]	IC50 (c-Raf-1) [µM]	IC50 (FGFR1) [µM]	IC50 (Fms) [µM]	IC50 (Src) [µM]	IC50 (Csk) [µM]	IC50 (Frk) [µM]	IC50 (Brk) [µM]	IC50 (Kit) [µM]	IC50 (TEC) [µM]	IC50 (Fak) [µM]	Compound	other results
≤ 10	≤ 10	≤ 10	≤ 10	≤ 10	≤ 10	≤ 10	≤ 10	≤ 10				CCCS(=O)(=O)Nc1ccc(Cl)c(C(=O)c2c[nH]c3ncc(Br)cc23)c1F [Compound P-0805, Propane-1-sulfonic acid [3-(5-bromo-1H-pyrrolo[2,3-b]pyridine-3-carbonyl)-4-chloro-2-fluoro-phenyl]-amide]	IC50 (Flt1): ≤ 10 µM
≤ 10	≤ 10	≤ 10	≤ 10	≤ 10					≤ 10	≤ 10		O=C(c1c(F)ccc(NS(=O)(=O)c2ccccc2)c1F)c1c[nH]c2nccc(Cl)c12 [Compound P-0954, N-[3-(4-Chloro-1H-pyrrolo[2,3-b]pyridine-3-carbonyl)-2,4-difluoro-phenyl]-benzenesulfonamide]	IC50 (MAP4K4): ≤ 10 µM; IC50 (Plk1): ≤ 10 µM
≤ 10	≤ 10	≤ 10	≤ 10	≤ 10	≤ 10	≤ 10	≤ 10	≤ 10	≤ 10		≤ 10	CCCS(=O)(=O)Nc1cccc(C(=O)c2c[nH]c3ncc(Br)cc23)c1F [Compound P-0955, Propane-1-sulfonic acid [3-(5-bromo-1H-pyrrolo[2,3-b]pyridine-3-carbonyl)-2-fluoro-phenyl]-amide]	IC50 (Stk6): ≤ 10 µM
≤ 10	≤ 10	≤ 10		≤ 10	≤ 10	≤ 10	≤ 10	≤ 10	≤ 10		≤ 10	CCCS(=O)(=O)Nc1cccc(C(=O)c2c[nH]c3ncc(Cl)cc23)c1F [Compound P-1013, propane-1-sulfonic acid [3-(5-chloro-1H-pyrrolo[2,3-b]pyridine-3-carbonyl)-2-fluoro-phenyl]-amide]	IC50 (Stk6): ≤ 10 µM
≤ 10	≤ 10	≤ 10	≤ 10		≤ 10	≤ 10	≤ 10	≤ 10		≤ 10	≤ 10	O=C(c1c(F)ccc(NS(=O)(=O)N2CCCCC2)c1F)c1c[nH]c2ncc(Cl)cc12 [Compound P-1020, Piperidine-1-sulfonic acid [3-(5-chloro-1H-pyrrolo[2,3-b]pyridine-3-carbonyl)-2,4-difluoro-phenyl]-amide]	IC50 (Btk): ≤ 10 µM
≤ 10	≤ 10	≤ 10	≤ 10	≤ 10	≤ 10				≤ 10	≤ 10		O=C(Nc1ccc(F)c(C(=O)c2c[nH]c3ncc(-c4cccnc4)cc23)c1F)NC1CCCC1 [Compound P-1317, 1-Cyclopentyl-3-[2,4-difluoro-3-(5-pyridin-3-yl-1H-pyrrolo[2,3-b]pyridine-3-carbonyl)-phenyl]-urea]	IC50 (Btk): ≤ 10 µM; IC50 (Flt1): ≤ 10 µM; IC50 (Jnk1): ≤ 10 µM; IC50 (Jnk3): ≤ 10 µM; IC50 (Gsk3β): ≤ 10 µM; IC50 (MAP4K4): ≤ 10 µM

Compound	IC50 (B-Raf) [µM]	IC50 (B-Raf V600E) [µM]	IC50 (c-Raf-1) [µM]	IC50 (FGFR1) [µM]	IC50 (Fms) [µM]	IC50 (Src) [µM]	IC50 (Csk) [µM]	IC50 (Frk) [µM]	IC50 (Brk) [µM]	IC50 (Kit) [µM]	IC50 (TEC) [µM]	IC50 (Fak) [µM]	other results
CCCS(=O)(=O)Nc1ccc(F)c(C(=O)c2c[nH]c3ncc(-c4ccc(Cl)cc4)cc23)c1F [Compound P-0956, Propane-1-sulfonic acid {3-[5-(4-chloro-phenyl)-1H-pyrrolo[2,3-b]pyridine-3-carbonyl]-2,4-difluoro-phenyl}-amide]				≤ 10	≤ 10	≤ 10	≤ 10	≤ 10	≤ 10	≤ 10		≤ 10	IC50 (Jnk1): ≤ 10 µM; IC50 (Kdr): ≤ 10 µM
